Data on 41 compounds can be found in patent publication EP4778922A1, “BICYCLIC COMPOUND, AND PREPARATION METHOD THEREFOR AND PHARMACEUTICAL USE THEREOF” (Shanghai Jeyou Pharmaceutical Co., Ltd., priority 2023, dated 2025).

The test system of one experiment is 22RV1 cells. The experiment can be described thus: Cell proliferation inhibition assay in 22RV1 cells (CellTiter-Glo, 7 days). Format: cell-based, human. As to conditions: Homo sapiens. The procedure, abridged:
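LNCaP and 22RV1 human prostate cancer cells, 3000 per well, exposed to graded compound for 7 days at 37°C, 5% CO2; LNCaP got 0.2 nM DHT 1 h after compound. Viability by CellTiter-Glo luminescence; IC50 from four-parameter variable-slope fit.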

Another experiment has as its system LNCaP cells. Put plainly: Cell proliferation inhibition assay in LNCaP cells (0.2 nM DHT, CellTiter-Glo, 7 days). Format: cell-based, human. As to conditions: Homo sapiens, 168 h. How it is done:
• 1. The human prostate cancer cell lines 22RV1 and LNCaP were purchased from ATCC. […] The cell concentration was adjusted to an appropriate concentration (determined based on the results of cell density optimization experiments), and the cells were seeded into a 96-well plate. A 100 µL cell suspension was added, resulting in 3000 cells per well. […] On the second day, for 22Rv1 cells, test compounds at different concentrations were added, and the cells were incubated at 37°C in a 5% CO2 incubator for 7 days; for LNCaP cells, test compounds at different concentrations were added first, and after 1 hour of treatment, 0.2 nM DHT was added. The cells were then incubated at 37°C in a 5% CO2 incubator for 7 days. • 4. After the incubation period, a volume of CellTiter-Glo detection reagent equal to the volume of the culture medium was added to each well. The plate was shaken and mixed thoroughly for 5 minutes, then incubated at room temperature for 10 minutes. Readings were taken using a PerkinElmer EnVision microplate reader. • 5.
The IC50 curve was fitted and the IC50 value was calculated using the software GraphPad Prism 8 with the calculation formula XY-analysis/Nonlinear regression (curve fit)/Dose response-Inhibition/log (inhibitor) vs. response-Variable slope (four parameters).
(In ATP-based viability assays light output follows the ATP content of the culture.)

As to `CC(C)(c1ccc(-c2cnc(OCc3ccc(-c4cnc(P(C)(C)=O)nc4)nc3)cn2)cc1)c1cc(Cl)c(OCCCl)c(C#N)c1` [Compound 373], the IC50 with 22RV1 cells (168 h) came out at 640 nM; with LNCaP cells, 250 nM.
Taken in the same sequence, the figures for `CC(C)(c1ccc(-c2ccc(OCc3ccnc(N4CC5(COC5)C4)n3)nc2)cc1)c1cc(Cl)c(OCCCl)c(C#N)c1` [Compound 209] were 290 nM and 420 nM.
The like results for `CC(C)(c1ccc(-c2cnc(OCC34CC(c5cnc(P(C)(C)=O)nc5)(C3)C4)nc2)cc1)c1cc(Cl)c(OCCCl)c(C#N)c1` [Compound 421] were, in that order, 350 nM and 600 nM.
The like results for `CC(C)(c1ccc(-c2ccc(OCC34CC(c5cnc(P(C)(C)=O)nc5)(C3)C4)nc2)cc1)c1cc(Cl)c(OCCCl)c(C#N)c1` [Compound 445] were, in that order, 130 nM and 80 nM.
`CC(C)(c1ccc(-c2cnc(COc3ccnc(P(C)(C)=O)n3)nc2)cc1)c1cc(Cl)c(OCCCl)c(C#N)c1` [Compound 385]: the 50% inhibitory concentration (IC50) with 22RV1 cells (168 h) came out at 570 nM; with LNCaP cells, 220 nM.
With `CC(C)(c1ccc(-c2ccc(OCC3CCC4(CC3)CN(c3ccnc(P(C)(C)=O)n3)C4)cc2)cc1)c1cc(Cl)c(OCCCl)c(C#N)c1` [Compound 260], the half-inhibitory concentration (IC50) in the experiment with 22RV1 cells (168 h) was 170 nM; with LNCaP cells it was 620 nM.
Regarding `CC(C)(c1cnc(-c2ccc(OCc3ccnc(N4CC(S(C)(=O)=O)C4)n3)cc2)nc1)c1cc(Cl)c(OCCCl)c(C#N)c1` [Compound 446], the IC50 in the experiment with 22RV1 cells (168 h) came out at 310 nM; in the experiment with LNCaP cells, 140 nM.
Turning to `CC(C)(c1cc(Cl)c(OCCCl)c(C#N)c1)c1ccc(-c2ccc(OCc3ccnc(N4CC(S(C)(=O)=O)C4)n3)cc2)cn1` [Compound 476], the results for the IC50 in the experiment with 22RV1 cells (168 h) and in the experiment on LNCaP cells were 170 nM and 44 nM, respectively.
Taken in the same sequence, the figures for `CC(C)(c1ccc(-c2ccc(OCc3nccnc3P(C)(C)=O)cc2)cc1)c1cc(Cl)c(OCCCl)c(C#N)c1` [Compound 358] were 570 nM and 240 nM.
The like results for `CC(C)(c1ccc(-c2ccc3cc(OCc4ccnc(P(C)(C)=O)n4)ccc3c2)cc1)c1cc(Cl)c(OCCCl)c(C#N)c1` [Compound 442] were, in that order, 380 nM and 160 nM.
`CC(C)(c1ccc(-c2cnc(OCc3cnc(-c4cnc(P(C)(C)=O)nc4)cn3)nc2)cc1)c1cc(Cl)c(OCCCl)c(C#N)c1` [Compound 402]: the IC50 was found to be 660 nM with 22RV1 cells (168 h) and 99 nM in the experiment on LNCaP cells.
With `CC(C)(c1ccc(-c2ccc(OCc3ccc(-c4ccc(P(C)(C)=O)nc4)cc3)cc2)cc1)c1cc(Cl)c(OCCCl)c(C#N)c1` [Compound 359], the half-maximal inhibitory concentration (IC50) is 230 nM in the experiment with 22RV1 cells (168 h) and 74 nM in the experiment with LNCaP cells.
Taken in the same sequence, the figures for `CC(C)(c1ccc(-c2ccc(OCC3CCC(CN4CC5(COC5)C4)CC3)cc2)cc1)c1cc(Cl)c(OCCCl)c(C#N)c1` (stereo not drawn) [Compound 333] were 320 nM and 680 nM.
Taken in the same sequence, the figures for `CC(C)(c1ccc(-c2cnc(OCc3ccnc(N4CC5(CCS(=N)(=O)CC5)C4)n3)cn2)cc1)c1cc(Cl)c(OCCCl)c(C#N)c1` [Compound 377] were 380 nM and 100 nM.
With `CC(C)(c1ccc(-c2ccc(OCc3ccnc(N4CC(S(C)(=N)=O)C4)n3)nc2)cc1)c1cc(Cl)c(OCCCl)c(C#N)c1` (stereo not drawn) [Compound 357], the IC50 with 22RV1 cells (22Rv1, 168 h) worked out at 830 nM; in the experiment on LNCaP cells (LNCaP), 440 nM.
Consider `CC(C)(c1ccc(-c2cnc(OCc3ccnc(N4CCC5(CC4)CS(=N)(=O)C5)n3)cn2)cc1)c1cc(Cl)c(OCCCl)c(C#N)c1` [Compound 444], for which the figures for the IC50 in the experiment with 22RV1 cells (168 h) and with LNCaP cells were 120 nM and 130 nM, respectively.
The like results for `CC(C)(c1ccc(-c2ccc(OCc3ccc(-c4cnc(P(C)(C)=O)nc4)cn3)nc2)cc1)c1cc(Cl)c(OCCCl)c(C#N)c1` [Compound 397] were, in that order, 950 nM and 110 nM.
For the compound `CNS(=O)(=O)C1CN(c2nccc(COc3cnc(-c4ccc(C(C)(C)c5cc(Cl)c(OCCCl)c(C#N)c5)cc4)cn3)n2)C1` [Compound 462], the 50% inhibitory concentration (IC50) came out at 160 nM in the experiment on 22RV1 cells (168 h) and 42 nM with LNCaP cells.
Taken in the same sequence, the figures for `CC(C)(c1ccc(-c2cnc(OCc3ccnc(N4CC(N=S(C)(C)=O)C4)n3)cn2)cc1)c1cc(Cl)c(OCCCl)c(C#N)c1` [Compound 388] were 370 nM and 530 nM.
Turning to `CC1(CO)CN(c2nccc(COc3cnc(-c4ccc(C(C)(C)c5cc(Cl)c(OCCCl)c(C#N)c5)cc4)cn3)n2)C1` [Compound 365], the half-maximal inhibitory concentration (IC50) with 22RV1 cells (168 h) is 930 nM; with LNCaP cells it was 550 nM.
Taken in the same sequence, the figures for `CC(C)(c1ccc(-c2ccc(OCCN3CCS(=O)(=O)CC3)cc2)cc1)c1cc(Cl)c(OCCCl)c(C#N)c1` [Compound 298] were 190 nM and 760 nM.
In the case of `CC(C)(c1ccc(-c2ccc(OCc3ccnc(N=S4(=O)CCNCC4)n3)cc2)cc1)c1cc(Cl)c(OCCCl)c(C#N)c1` [Compound 108], the concentration for half-maximal inhibition (IC50) with 22RV1 cells (168 h) turned out to be 60 nM; in the experiment with LNCaP cells, 300 nM.
The like results for `CC(C)(c1ccc(-c2ccc(OCc3ccnc(N=S4(=O)CCN(CC(F)F)CC4)n3)nc2)cc1)c1cc(Cl)c(OCCCl)c(C#N)c1` [Compound 264] were, in that order, 250 nM and 980 nM.
`CC(C)(c1ccc(-c2ccc(OCc3ccnc(N=S4(=O)CCC(F)(F)CC4)n3)cc2)cc1)c1cc(Cl)c(OCCCl)c(C#N)c1` [Compound 288]: the IC50 was found to be 74 nM with 22RV1 cells (168 h) and 550 nM with LNCaP cells.
`CC(C)(c1ccc(-c2ccc(OCc3ccnc(N4CC(N=S(C)(C)=O)C4)n3)cc2)cc1)c1cc(Cl)c(OCCCl)c(C#N)c1` [Compound 195]: the figures for the IC50 with 22RV1 cells (168 h) and in the experiment on LNCaP cells were 38 nM and 460 nM, respectively.
For the compound `CC(C)(c1ccc(-c2ccc(OCCOc3nccc(N4CC5(COC5)C4)n3)cc2)cc1)c1cc(Cl)c(OCCCl)c(C#N)c1` [Compound 203], the IC50 came to 47 nM in the experiment on 22RV1 cells (22Rv1, 168 h) and 440 nM in the experiment on LNCaP cells (LNCaP).
As for `CC(C)(c1ccc(-c2ccc(OCc3ccnc(N=S4(=O)CCN(CC(F)F)CC4)n3)cn2)cc1)c1cc(Cl)c(OCCCl)c(C#N)c1` [Compound 179], the half-maximal inhibitory concentration (IC50) in the experiment with 22RV1 cells (168 h) was determined as 410 nM; in the experiment on LNCaP cells it was 530 nM.
Turning to `CC(C)(c1ccc(-c2ccc(OCc3ccc(-c4cnc(P(C)(C)=O)cn4)cc3)cc2)cc1)c1cc(Cl)c(OCCCl)c(C#N)c1` [Compound 419], the IC50 with 22RV1 cells (168 h) and with LNCaP cells was 130 nM throughout.
`CC(C)(c1ccc(-c2ccc(OCc3ccnc(N=S4(=O)CCN(CC(O)c5ccccc5)CC4)n3)cc2)cc1)c1cc(Cl)c(OCCCl)c(C#N)c1` (stereo not drawn) [Compound 435]: the values for the IC50 in the experiment with 22RV1 cells (168 h) and with LNCaP cells were 180 nM and 650 nM, respectively.
On to `CC(C)(c1cc(Cl)c(OCCCl)c(C#N)c1)c1ccc(-c2ccc(OCc3ccnc(N4CC(S(C)(=O)=O)C4)n3)cn2)cn1` [Compound 471], for which the figures for the half-maximal inhibitory concentration (IC50) in the experiment with 22RV1 cells (168 h) and with LNCaP cells were 950 nM and 430 nM, respectively.
The like results for `CC(C)(c1ccc(-c2cnc(OCc3ccnc(N4CC5(CCS5(=N)=O)C4)n3)cn2)cc1)c1cc(Cl)c(OCCCl)c(C#N)c1` (racemic) [Compound 375] were, in that order, 120 nM and 59 nM.
Taken in the same sequence, the figures for `CC(C)(c1ccc(-c2ncc(OCc3ccc(-c4cnc(P(C)(C)=O)cn4)cc3)cn2)cc1)c1cc(Cl)c(OCCCl)c(C#N)c1` [Compound 424] were 660 nM and 310 nM.
On to `CC(C)(c1ccc(-c2ccc(OCc3ccc(-c4cnc(N5CC(S(C)(=O)=O)C5)nc4)cc3)c(C#N)c2)cc1)c1cc(Cl)c(OCCCl)c(C#N)c1` [Compound 382], for which the results for the IC50 in the experiment with 22RV1 cells (168 h) and in the experiment with LNCaP cells were 860 nM and 410 nM, respectively.
The like results for `CC(C)(c1ccc(-c2cnc(OCc3ccc(-c4cnc(P(C)(C)=O)nc4)cc3)cn2)cc1)c1cc(Cl)c(OCCCl)c(C#N)c1` [Compound 361] were, in that order, 250 nM and 400 nM.
In the case of `CC(C)(c1ccc(-c2ccc(OCc3ccc(-c4ccc(P(C)(C)=O)nn4)cc3)cc2)cc1)c1cc(Cl)c(OCCCl)c(C#N)c1` [Compound 394], the half-inhibitory concentration (IC50) with 22RV1 cells (168 h) was 110 nM; with LNCaP cells it was 76 nM.
Taken in the same sequence, the figures for `CC(C)(c1ccc(-c2ccc(OCc3ccnc(N4CC5(C4)CS(=N)(=O)C5)n3)cn2)cc1)c1cc(Cl)c(OCCCl)c(C#N)c1` [Compound 422] were 690 nM and 530 nM.
Taken in the same sequence, the figures for `CC(=O)c1nccc(COc2ccc(-c3ccc(C(C)(C)c4cc(Cl)c(OCCCl)c(C#N)c4)cc3)cc2)n1` [Compound 440] were 990 nM and 570 nM.
With `CC(C)(c1ccc(-c2cnc(COc3ccnc(P(C)(C)=O)n3)cn2)cc1)c1cc(Cl)c(OCCCl)c(C#N)c1` [Compound 432], the IC50 was found to be 840 nM in the experiment on 22RV1 cells (168 h) and 660 nM with LNCaP cells.
Turning to `CC(C)(c1ccc(-c2ccc(OCc3ccnc(N4C5CCC4CC(S(C)(=O)=O)C5)n3)cc2)cc1)c1cc(Cl)c(OCCCl)c(C#N)c1` (stereo not drawn) [Compound 463], the 50% inhibitory concentration (IC50) with 22RV1 cells (168 h) came out at 88 nM; with LNCaP cells it was 93 nM.
Consider `CC(C)(c1ccc(-c2ccc(OCc3ccnc(N4CC(S(=N)(=O)C5CC5)C4)n3)nc2)cc1)c1cc(Cl)c(OCCCl)c(C#N)c1` (stereo not drawn) [Compound 356], for which the half-maximal inhibitory concentration (IC50) in the experiment with 22RV1 cells (168 h) is 790 nM; with LNCaP cells, 410 nM.
Turning to `CC(C)(c1ccc(-c2cnc(OCc3ccnc(N4CC(S(=N)(=O)C5CC5)C4)n3)cn2)cc1)c1cc(Cl)c(OCCCl)c(C#N)c1` (single isomer, unassigned) [Compound 350B], 500 nM corresponded to half-maximal inhibition in the experiment on LNCaP cells (IC50).

The term IC50 denotes the concentration that inhibits the measured activity by half. The low end stands for greater potency, the high end for weaker potency.
